Assay results from paper PMC5447729 (Frontiers in Pharmacology, 2017).
Read-outs that look alike come from different tables or passages of the source.

How the values were obtained:
PPARγ target genes = assay: Real-time PCR gene expression in tissues of treated DIO and db/db mice; type: in vivo; conditions: for expression of BAT marker genes (Ucp1, Cidea, Elove3, Cox7a, Cox8b) and adipogenesis and lipogenesis genes (aP2, adiponectin, Lpl, Cd36) in BAT: more pronounced in the INT131 group; for expression of adipogenesis and fatty acid metabolism genes in sWAT and eWAT / levels of macrophage markers Cd68 and F4/80, pro-inflammatory cytokines IL-6 and TNFα and chemokine Mcp1 / Ucp1, Elove3 and aP2 gene expression in skeletal muscle: DIO and db/db mice; for expression of adipogenesis and fatty acid metabolism genes in sWAT and eWAT / levels of macrophage markers Cd68 and F4/80, pro-inflammatory cytokines IL-6 and TNFα and chemokine Mcp1: sWAT and eWAT
Experimental: Total RNA was isolated from tissues with a High-Purity Total RNA Extraction Kit (BioTeke Corporation, Beijing, China) according to the manufacturer's instructions. RNA was reverse-transcribed into cDNA with a High Capacity cDNA Reverse Transcription Kit (Transgenes Corporation, Beijing, China). Real-time PCR was carried out on an ABI 7300 Real-time PCR System (Applied Biosystems, Foster City, CA, USA) using SYBR Green PCR Master Mix (Roche Molecular Biochemicals, Mannheim, Germany). Relative gene expression levels were normalized to the β-actin gene and quantified by using the 2^−ΔΔCt method. Primer sequences are listed in (Supplementary Table 1).

[1] = RSG and INT131 concentrations in plasma and tissue after a single oral dose (UHPLC-MS/MS); type: in vivo, DIO mice; conditions: for average residency time: blood concentration-time profile, pre-test, single oral gavage RSG 10 mg kg−1 or INT131 30 mg kg−1; for Tmax: C57BL/6, mouse, po, 30 mg/kg, read-out: time of peak concentration
DIO mice = assay: Three-week oral treatment of insulin-resistant DIO mice (OGTT, FBG, serum factors, organ indices, liver lipids, histology); type: in vivo; conditions: for body weight and WAT: RSG 10 mg kg−1, INT131 30 mg kg−1; for serum adiponectin / serum pro-inflammatory cytokines MCP-1 and IL-6: multiplex detection; for morphology of hepatocyte and hepatic lipid content: vs vehicle-treated
Experimental: All animal experiments were performed according to procedures approved by the Animal Experimentation Ethics Committee of the Beijing Institute of Pharmacology and Toxicology for animal care, handling and termination. Eight-week-old male homozygous C57BLKS/J db/db mice were obtained from the Model Animal Research Centre of Nanjing University (Nanjing, China) and fed a standard mouse diet. Male C57BL/6 mice (4 weeks old) were obtained from the Laboratory Animal Centre of the Beijing Institute of Pharmacology and Toxicology and fed a high-fat, high-sugar diet for 16 weeks to induce diet-induced obesity (DIO). […] Compounds were dissolved in DMSO and suspended in 0.5% carboxymethylcellulose. Body weight (BW) and fasting blood glucose were recorded regularly during the treatment period. After 14 d of treatment, db/db mice were subjected to insulin tolerance tests (ITT) and fasted for 6 h prior to the intraperitoneal (i.p.) injection of 1 U kg^−1 insulin, and blood glucose was estimated at the indicated time points. […] Blood glucose was monitored at 0, 30, 60, 90, and 120 min after the oral administration of 1 g kg^−1 dextrose. […] Interscapular brown adipose tissue (iBAT), epididymal white adipose tissue (eWAT), subcutaneous inguinal white adipose tissue (sWAT), liver and skeletal muscle were excised, weighed and rapidly frozen in liquid nitrogen for subsequent gene expression and western blot analysis.
(§1) Serum triglyceride (TG), cholesterol, free fatty acid (FFA), and glucose levels were measured by using commercial kits (Nanjing Jiancheng Bioengineering Institute, Nanjing, China) according to the manufacturer's instructions. Serum adiponectin, monocyte chemotactic protein 1(MCP1), Interleukin-6 (IL-6), Receptor activator of nuclear factor kappa-B ligand (RANKL), and Adrenocorticotropic Hormone (ACTH) were quantified using a multiplex Luminex assay (Millipore/Linco Research).
To determine TG and total cholesterol levels in the liver, 50 mg of frozen tissue was homogenized with a TissueLyserII (Qiagen, Germantown, MD, USA) in 1 ml of chloroform/methanol (2:1, v/v), after which 200 μL of 0.05 M KCl was added, and the solution was centrifuged at 5,000 rpm for 10 min. The aqueous phase was removed, and the organic phase was filtered and dried by nitrogen flushing. After evaporation of the chloroform under nitrogen, lipid samples were resuspended in isopropyl alcohol, and TG and total cholesterol content were determined with enzymatic assays.
sWAT, iBAT, and liver samples were fixed, embedded in paraffin and sectioned. Sections were cut at a thickness of […] and stained with haematoxylin/eosin (HE). Liver sections as well as adipose sections from at least 3 mice per group were also stained with HE. Adipocyte (n = 100 adipocytes) diameter was measured using Image J software, and the average diameter was recorded for each animal.

PRDM16 = assay: Western blot of PRDM16 protein in sWAT of treated mice; type: in vivo; conditions: DIO and db/db mice
Text: To obtain tissue lysates, eWAT and sWAT were homogenized in 10% sodium dodecyl sulfate buffer containing protease and phosphatase inhibitors. An antibody targeting PR domain containing 16 (PRDM16) (Abcam) was used for western blotting. Bands were detected with ECL enhanced chemiluminescence detection reagents (Applygen, Beijing, China) and scanned with an Alpha Imager 5500 (Alpha Innotech, San Leandro, CA, USA) imaging densitometer.

C2C12 cells = assay: Conversion of myogenic C2C12 cells to adipocytes (gene expression); type: cell-based; conditions: 10 μM for 5 d after confluence, in the same manner as RSG
db/db mice = assay: Three-week oral treatment of diabetic db/db mice (FBG, ITT, serum parameters, organ indices); type: in vivo
Experimental: All animal experiments were performed according to procedures approved by the Animal Experimentation Ethics Committee of the Beijing Institute of Pharmacology and Toxicology for animal care, handling and termination. Eight-week-old male homozygous C57BLKS/J db/db mice were obtained from the Model Animal Research Centre of Nanjing University (Nanjing, China) and fed a standard mouse diet. Male C57BL/6 mice (4 weeks old) were obtained from the Laboratory Animal Centre of the Beijing Institute of Pharmacology and Toxicology and fed a high-fat, high-sugar diet for 16 weeks to induce diet-induced obesity (DIO). […] Body weight (BW) and fasting blood glucose were recorded regularly during the treatment period. […] Blood glucose was monitored at 0, 30, 60, 90, and 120 min after the oral administration of 1 g kg^−1 dextrose. […]
as §1

[2] = test system: diabetic Zucker (fa/fa) fatty rats; set-up: method as in prior studies in rodents; conditions: 3 mg kg−1 day−1 INT131 vs 1 mg kg−1 RSG, ref prior studies in rodents; cited from earlier work
[3] = test system: mouse 3T3-L1 preadipocytes; assay: Differentiation of mouse 3T3-L1 preadipocytes; type: cell-based; conditions: we and others (Motani et al., 2009)
[4] = all assayed tissues, DIO mice, RSG 10 mg kg−1 oral

Structure (SMILES)	expression of BAT marker genes (Ucp1, Cidea, Elove3, Cox7a, Cox8b) and adipogenesis and lipogenesis genes (aP2, adiponectin, Lpl, Cd36) in BAT (PPARγ target genes; DIO mice)	expression of adipogenesis and fatty acid metabolism genes in sWAT and eWAT (PPARγ target genes)	levels of macrophage markers Cd68 and F4/80, pro-inflammatory cytokines IL-6 and TNFα and chemokine Mcp1 (PPARγ target genes)	Ucp1, Elove3 and aP2 gene expression in skeletal muscle (PPARγ target genes)	average residency time [1]	body weight and WAT (DIO mice)	serum adiponectin (DIO mice)	serum pro-inflammatory cytokines MCP-1 and IL-6 (DIO mice)	sizes of expanded adipocytes in the sWAT (DIO mice; HE staining)	morphology of hepatocyte and hepatic lipid content (DIO mice)	PRDM16 protein levels in sWAT (PRDM16)	further results
CN(CCOc1ccc(CC2SC(=O)NC2=O)cc1)c1ccccn1 (stereo not shown) [RSG, 5-[[4-[2-[methyl(pyridin-2-yl)amino]ethoxy]phenyl]methyl]-1,3-thiazolidine-2,4-dione]	substantially up-regulation	similarly up-regulated	comparably reduced	enhanced	4.03 ± 0.83 h	no impact	equal elevation	decreased levels	markedly decreased	dramatically aggravated hepatic hypertrophy and increased lipid accumulation	markedly increased	expression of adipocyte-specific genes aP2, adipsin, adiponectin, cidea and cidec in the liver (PPARγ target genes; liver, DIO mice): robustly up-regulated; expression of genes of lipogenesis (Acc) and fatty acid uptake (Cd36) in the liver (PPARγ target genes; liver, DIO mice): dramatically stimulated; expression of the key gluconeogenesis gene (Pepck) in the liver (PPARγ target genes; liver, DIO mice): inhibited; expression of fatty acid oxidation genes Cpt1b and Pdk4 in the liver (PPARγ target genes; liver, DIO mice, RSG rather than INT131): marked up-regulation; time of peak concentration (Cmax) [1, 4]: 0.5 h; tissue concentration by 12 h [1, 4]: almost negligible
O=S(=O)(Nc1cc(Cl)c(Oc2cnc3ccccc3c2)c(Cl)c1)c1ccc(Cl)cc1Cl [INT131, 2,4-dichloro-N-[3,5-dichloro-4-(quinolin-3-yloxy)phenyl] benzene sulfonamide]	substantially up-regulation	similarly up-regulated	comparably reduced	enhanced	4.4 ± 1.17 h	no impact	equal elevation	decreased levels	markedly decreased	no impact	markedly increased	switch of myogenic cells to adipocytes (adipogenesis and myogenesis gene expression) (C2C12 cells): able to switch myogenic cells to adipocytes; Cd36 expression in the liver (PPARγ target genes; liver, DIO mice): only slightly induced an increase; expression of aP2, adiponectin and cidec in the liver (PPARγ target genes; liver, DIO mice): did not induce; induction of adipsin and cidea in the liver compared with RSG (PPARγ target genes; liver, DIO mice): to a lesser degree; body weight gain compared with RSG (db/db mice; 10 and 30 mg kg−1 INT131 vs 10 mg kg−1 RSG): equal body weight gains; fasting blood glucose (FBG) (db/db mice; INT131 10 or 30 mg kg−1 by gavage once daily, within 1 week of treatment): lowered fasting blood glucose (FBG) in a dose-dependent manner; Tmax ([1]; plasma and liver): 0.5 h; Tmax ([1]; skeletal muscle, eWAT, sWAT, BAT): 4 h; blood glucose lowering effects compared with RSG [2]: identical; hepatic weight (DIO mice; 30 mg kg−1 INT131): did not induce an increase; brown adipocyte hypertrophy (adipocyte size and area in BAT) (DIO mice; BAT, HE staining): more severe brown adipocyte hypertrophy; promoting the differentiation of preadipocytes, compared with RSG [3]: weaker effects
